Tests used:
Type in all cases: cell-based
[1] = biological target: T1, KIF5B-RET-BaF3 (Homo sapiens, UniProt P07949); assay: Growth inhibition of KIF5B-RET-BaF3 cells stably transfected with kinase (MTS); conditions: 48 h, read-out: KIF5B-RET (IC50/nM)
T1 construct: fused on or other part: P33176 (Kinesin-1 heavy chain)
Procedure, shortened: (§1)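 IC50 derived from growth inhibition by MTS absorbance at 490 nm after 48 h compound exposure (top 10 μM, 1:3 steps, 8 points, 0.1% DMSO) of 2×10^4 RET-fusion (CCDC6-RET, KIF5B-RET) or wild-type BaF3 cells per well, in triplicate.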

[2] = test system: wild-type BaF3; assay: Growth inhibition of wild-type BaF3 cells, broad-spectrum toxicity (MTS); conditions: Mus musculus, 48 h, read-out: WT Ba/F3 (IC50/nM)
Procedure: Growth inhibitory activity of compounds on cell lines stably transfected with kinase
The activity of compounds against kinase RET is evaluated by their effect of inhibiting growth of cell lines stably transfected with kinase CCDC6-RET-BaF3, KIF5B-RET-BaF3, and wild-type BaF3 (Proc. Natl. Acad. Sci. USA., 2006, 103, 3153-8.). The growth of the cell lines stably transfected with kinase CCDC6-RET-BaF3, KIF5B-RET-BaF3 depends on their kinase activity. If a compound can inhibit the activity of the kinase RET per se or the activity of the RET signaling pathway, the compound can inhibit the growth of BaF3 cells stably transfected with kinase. […] Therefore, a larger ratio between IC50 of a compound to wild-type BaF3 and IC50 of the compound to the cell lines stably transfected with kinase CCDC6-RET-BaF3, KIF5B-RET-BaF3 indicates better targeting.
The specific test method is given as follows:
1) Medium: DMEM (Dulbecco's modified eagle medium) or RPMI 1640 (containing 10% fetal bovine serum, 100 μg/mL ampicillin, 100 μg/mL streptomycin).
2) Reagents: MTS reaction solution (containing 2 mg/mL of MTS [3-(4,5-dimethylthiazol-2-yl)-5-(3-carboxymethoxyphenyl)-2-(4-sulfophenyl)-2H-tetrazolium, inner Salt]; 100 μg/mL PES (phenazine […])).
3) Compound test: cells stably transfected with kinase (CCDC6-RET-BaF3, KIF5B-RET-BaF3) or wild-type BaF3 cells (2×10^4 cells/well) were incubated into a 96-well culture plate, the volume of cell culture fluid was 90 μL, and then 10 μL of the compound at each gradient concentration was added (the highest concentration was 10 μM, which was diluted stepwise by ⅓, and 8 concentration points were set in total; the system contained 0.1% DMSO (dimethyl sulfoxide)). The cell plate with uniformly mixed compound was cultured in a cell culture incubator (37° C.; 5% CO2) for 48 h, then 20 μL of MTS reaction solution was added, uniformly mixed and incubated in the cell culture incubator (37° C.; 5% CO2) for 1-4 hr, OD values at 490 nm were measured by a microplate reader (VARIOSKAN FLASH, Thermo). Three parallels were set in each group of experiments, with 0.1% (a final concentration) DMSO as a negative control, and a medium without cells or compounds as a blank control. The cell growth inhibition rate was calculated by the following formula: Cell growth inhibition rate %=1−(ODexperimental group−ODblank group)/(ODnegative group−ODblank group)×100%
4) IC50 calculation: The semi-inhibitory concentration of the compound acting on cell growth was calculated using GradPad Prism 5 software according to the measured cell growth inhibition rate.

[3] = biological target: T2, CCDC6-RET-BaF3 (Homo sapiens, UniProt P07949); assay: Growth inhibition of CCDC6-RET-BaF3 cells stably transfected with kinase (MTS); conditions: 48 h, read-out: CCDC6-RET (IC50/nM)
T2 construct: fused on or other part: Q16204 (Coiled-coil domain-containing protein 6)
T2 sequence (P07949 whole entry, change not shown, the tested form may be a part): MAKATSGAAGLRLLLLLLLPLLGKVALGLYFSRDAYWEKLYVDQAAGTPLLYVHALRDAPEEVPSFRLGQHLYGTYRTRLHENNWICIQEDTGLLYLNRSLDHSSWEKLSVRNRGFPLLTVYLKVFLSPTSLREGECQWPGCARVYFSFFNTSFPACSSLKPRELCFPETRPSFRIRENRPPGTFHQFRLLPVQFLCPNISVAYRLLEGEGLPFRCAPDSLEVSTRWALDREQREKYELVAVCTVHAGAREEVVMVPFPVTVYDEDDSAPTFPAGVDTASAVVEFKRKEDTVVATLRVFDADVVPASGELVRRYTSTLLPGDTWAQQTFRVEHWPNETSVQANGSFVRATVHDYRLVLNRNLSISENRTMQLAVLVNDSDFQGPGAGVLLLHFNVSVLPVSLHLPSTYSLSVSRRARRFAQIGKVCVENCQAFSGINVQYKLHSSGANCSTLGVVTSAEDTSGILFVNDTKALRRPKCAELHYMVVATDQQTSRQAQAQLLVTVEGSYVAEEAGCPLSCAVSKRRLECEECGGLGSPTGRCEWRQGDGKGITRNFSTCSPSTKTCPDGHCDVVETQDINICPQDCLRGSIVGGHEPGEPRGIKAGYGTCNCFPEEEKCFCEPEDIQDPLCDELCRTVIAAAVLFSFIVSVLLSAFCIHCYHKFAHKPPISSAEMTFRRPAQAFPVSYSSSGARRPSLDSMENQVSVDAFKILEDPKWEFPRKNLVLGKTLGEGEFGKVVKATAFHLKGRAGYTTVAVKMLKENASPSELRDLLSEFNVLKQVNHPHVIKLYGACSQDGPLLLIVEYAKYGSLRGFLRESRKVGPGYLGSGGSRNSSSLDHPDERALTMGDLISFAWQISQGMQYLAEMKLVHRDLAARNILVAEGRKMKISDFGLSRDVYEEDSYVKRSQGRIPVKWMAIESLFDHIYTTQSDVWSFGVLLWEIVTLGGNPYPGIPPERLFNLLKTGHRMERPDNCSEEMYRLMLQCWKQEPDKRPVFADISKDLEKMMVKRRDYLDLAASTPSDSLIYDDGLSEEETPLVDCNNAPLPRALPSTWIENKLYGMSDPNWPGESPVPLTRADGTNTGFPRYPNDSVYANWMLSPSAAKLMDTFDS
Procedure, shortened: as §1

T1 sequence (P07949 whole entry, change not shown, the tested form may be a part): as above

Row | GI50 [1] [nM] | GI50 [3] [nM] | Compound | IC50 [2] [nM]
1 | 44.2 | 7.96 | Cc1ccc(Oc2nc(-c3ccncc3)nc3[nH]ncc23)cc1NC(=O)c1ccc(CN2CCN(C)CC2)c(C(F)(F)F)c1 [II-j-6] | 4230
2 | 1350 | 567 | CN1CCN(Cc2ccc(C(=O)Nc3cc(Oc4nc(-c5cccnc5)nc5[nH]ncc45)ccc3Cl)cc2C(F)(F)F)CC1 [II-k-3] | 1340
3 | 104 | 37.7 | CN1CCN(Cc2ccc(C(=O)Nc3cc(Oc4nc(-c5ccncc5)nc5[nH]ncc45)ccc3Cl)cc2C(F)(F)F)CC1 [II-k-4] | > 10000
4 | 74.3 | 10.6 | Cc1ccc(C(=O)Nc2ccc(CN3CCN(C)CC3)c(C(F)(F)F)c2)cc1Oc1nc(-c2cccnc2)nc2[nH]ncc12 [II-m-20] | > 10000
5 | 240 | 73.4 | Cc1ccc(C(=O)Nc2ccc(CN3CCN(C)CC3)c(C(F)(F)F)c2)cc1Oc1nc(-c2ccncc2)nc2[nH]ncc12 [II-m-21] | 4780
6 | 2350 | 2480 | Cc1ccc(Oc2nc(-c3ccccc3)nc3cc[nH]c23)cc1NC(=O)c1ccc(CN2CCN(C)CC2)c(C(F)(F)F)c1 [III-j-3] | 3780
7 | 1720 | 1360 | Cc1ccc(Oc2nc(-c3ccsc3)nc3cc[nH]c23)cc1NC(=O)c1ccc(CN2CCN(C)CC2)c(C(F)(F)F)c1 [III-j-4] | 3410
8 | 1370 | 1270 | Cc1ccc(Oc2nc(-c3ccccc3)nc3ccn(C)c23)cc1NC(=O)c1ccc(CN2CCN(C)CC2)c(C(F)(F)F)c1 [III-j-7] | 2560
9 | 1320 | 1140 | Cc1ccc(Oc2nc(-c3ccsc3)nc3ccn(C)c23)cc1NC(=O)c1ccc(CN2CCN(C)CC2)c(C(F)(F)F)c1 [III-j-8] | 1880
10 | 464 | 97.6 | Cc1ccc(Oc2nc(-c3ccoc3)nc3cc[nH]c23)cc1NC(=O)c1ccc(CN2CCN(C)CC2)c(C(F)(F)F)c1 [III-j-9] | 4260
11 | 428 | 234 | Cc1ccc(Oc2nc(-c3ccoc3)nc3ccn(C)c23)cc1NC(=O)c1ccc(CN2CCN(C)CC2)c(C(F)(F)F)c1 [III-j-10] | 1460
12 | 1570 | 1530 | Cc1ccc(Oc2nc(-c3ccc(Cl)cc3)nc3cc[nH]c23)cc1NC(=O)c1ccc(CN2CCN(C)CC2)c(C(F)(F)F)c1 [III-j-11] | 1360
13 | 2970 | 2660 | Cc1ccc(Oc2nc(-c3ccc(Cl)cc3)nc3ccn(C)c23)cc1NC(=O)c1ccc(CN2CCN(C)CC2)c(C(F)(F)F)c1 [III-j-12] | 2150
14 | 2400 | 1720 | Cc1ccc(Oc2nc(-c3ccc(O)cc3)nc3cc[nH]c23)cc1NC(=O)c1ccc(CN2CCN(C)CC2)c(C(F)(F)F)c1 [III-j-13] | 4150
15 | 1380 | 876 | Cc1ccc(Oc2nc(-c3ccc(O)cc3)nc3ccn(C)c23)cc1NC(=O)c1ccc(CN2CCN(C)CC2)c(C(F)(F)F)c1 [III-j-14] | 1340
16 | 620 | 745 | Cc1ccc(Oc2nc(-c3ccc(N)cc3)nc3cc[nH]c23)cc1NC(=O)c1ccc(CN2CCN(C)CC2)c(C(F)(F)F)c1 [III-j-15] | 1200
17 | 1470 | 2040 | Cc1ccc(Oc2nc(-c3ccc(N)cc3)nc3ccn(C)c23)cc1NC(=O)c1ccc(CN2CCN(C)CC2)c(C(F)(F)F)c1 [III-j-16] | 2280
18 | 1350 | 477 | Cc1ccc(Oc2ncnc3ccn(C)c23)cc1NC(=O)c1ccc(CN2CCN(C)CC2)c(C(F)(F)F)c1 [III-j-18] | > 10000
19 | 1320 | 1860 | CN1CCN(Cc2ccc(C(=O)Nc3cc(Oc4nc(-c5cccnc5)nc5cc[nH]c45)ccc3Cl)cc2C(F)(F)F)CC1 [III-k-1] | 4160
20 | 17.2 | 0.79 | CN1CCN(Cc2ccc(C(=O)Nc3cc(Oc4nc(-c5ccncc5)nc5cc[nH]c45)ccc3Cl)cc2C(F)(F)F)CC1 [III-k-2] | 1340
21 | 1190 | 1250 | CN1CCN(Cc2ccc(C(=O)Nc3cc(Oc4nc(-c5cccnc5)nc5ccn(C)c45)ccc3Cl)cc2C(F)(F)F)CC1 [III-k-3] | 1170
22 | 70.7 | 11.2 | CN1CCN(Cc2ccc(C(=O)Nc3cc(Oc4nc(-c5ccncc5)nc5ccn(C)c45)ccc3Cl)cc2C(F)(F)F)CC1 [III-k-4] | 1620

Second part, the compound before the results:

Row | Compound | GI50 [1] [nM] | GI50 [3] [nM] | IC50 [2] [nM]
23 | Cn1cnc2c(Oc3cccc(C(=O)Nc4cccc(C(F)(F)F)c4)c3)nc(-c3ccncc3)nc21 [I-d-2] | 5710 | 1540 | > 10000
24 | Cc1ccc(Oc2nc(-c3ccccc3)nc3c2ncn3C)cc1NC(=O)c1ccc(CN2CCN(C)CC2)c(C(F)(F)F)c1 [I-j-2] | 1580 | 2130 | 2110
25 | Cc1ccc(Oc2nc(-c3ccc(Cl)cc3)nc3c2ncn3C)cc1NC(=O)c1ccc(CN2CCN(C)CC2)c(C(F)(F)F)c1 [I-j-3] | 1430 | 1420 | 1770
26 | Cc1ccc(Oc2nc(-c3ccc(O)cc3)nc3c2ncn3C)cc1NC(=O)c1ccc(CN2CCN(C)CC2)c(C(F)(F)F)c1 [I-j-4] | 1610 | 1010 | 1790
27 | Cc1ccc(Oc2nc(-c3ccc(N)cc3)nc3c2ncn3C)cc1NC(=O)c1ccc(CN2CCN(C)CC2)c(C(F)(F)F)c1 [I-j-5] | 2370 | 1880 | 4200
28 | Cc1ccc(Oc2nc(-c3ccoc3)nc3c2ncn3C)cc1NC(=O)c1ccc(CN2CCN(C)CC2)c(C(F)(F)F)c1 [I-j-6] | 1180 | 221 | 4220
29 | Cc1ccc(Oc2nc(-c3ccsc3)nc3c2ncn3C)cc1NC(=O)c1ccc(CN2CCN(C)CC2)c(C(F)(F)F)c1 [I-j-7] | 1440 | 1030 | 2410
30 | CN1CCN(Cc2ccc(NC(=O)c3cccc(Oc4nc(-c5ccncc5)nc5[nH]cnc45)c3)cc2C(F)(F)F)CC1 [I-l-1] | 1950 | 476 | > 10000
31 | CN1CCN(Cc2ccc(NC(=O)c3cccc(Oc4nc(-c5cccnc5)nc5c4ncn5C)c3)cc2C(F)(F)F)CC1 [I-l-2] |  | 3610 | 1360
32 | CN1CCN(Cc2ccc(NC(=O)c3cccc(Oc4nc(-c5ccncc5)nc5c4ncn5C)c3)cc2C(F)(F)F)CC1 [I-l-3] | 5.88 | 25.2 | > 10000
33 | Cc1ccc(C(=O)Nc2ccc(CN3CCN(C)CC3)c(C(F)(F)F)c2)cc1Oc1nc(-c2ccncc2)nc2[nH]cnc12 [I-m-1] | 810 | 504 | > 10000
34 | Cc1ccc(Oc2nc(-c3ccncc3)nc3[nH]cnc23)cc1C(=O)Nc1ccc(CN2CCN(C)CC2)c(C(F)(F)F)c1 [I-n-1] | 900 | 298 | > 10000
35 | Cc1ccc(Oc2nc(-c3cccnc3)nc3c2ncn3C)cc1C(=O)Nc1ccc(CN2CCN(C)CC2)c(C(F)(F)F)c1 [I-n-2] | 3640 | 3210 | 1610
36 | Cc1ccc(C(=O)Nc2cccc(C(F)(F)F)c2)cc1Oc1nc(-c2ccncc2)nc2c1cnn2C [II-e-2] | 1770 | 1430 | > 10000
37 | CN1CCN(Cc2ccc(C(=O)Nc3cccc(Oc4nc(-c5cccnc5)nc5[nH]ncc45)c3)cc2C(F)(F)F)CC1 [II-h-3] | 820 | 343 | 4090
38 | CN1CCN(Cc2ccc(C(=O)Nc3cccc(Oc4nc(-c5ccncc5)nc5[nH]ncc45)c3)cc2C(F)(F)F)CC1 [II-h-4] | 300 | 78.6 | 3930
39 | Cc1ccc(Oc2nc(-c3cccnc3)nc3[nH]ncc23)cc1NC(=O)c1ccc(CN2CCN(C)CC2)c(C(F)(F)F)c1 [II-j-5] | 3890 | 2370 | 7400

Source: US11319322B2, “Substituted aryl ether compound, preparation method thereof, pharmaceutical composition and use thereof” (Xiamen University, priority 2017, dated 2022)
